The target in assay [1] is T1, angiotensin II receptor type 1 (AT1) (Homo sapiens, UniProt P30556).
T1 construct: expressed in transfected cells; host or cells: HEK-293
T1 sequence (P30556 1-359): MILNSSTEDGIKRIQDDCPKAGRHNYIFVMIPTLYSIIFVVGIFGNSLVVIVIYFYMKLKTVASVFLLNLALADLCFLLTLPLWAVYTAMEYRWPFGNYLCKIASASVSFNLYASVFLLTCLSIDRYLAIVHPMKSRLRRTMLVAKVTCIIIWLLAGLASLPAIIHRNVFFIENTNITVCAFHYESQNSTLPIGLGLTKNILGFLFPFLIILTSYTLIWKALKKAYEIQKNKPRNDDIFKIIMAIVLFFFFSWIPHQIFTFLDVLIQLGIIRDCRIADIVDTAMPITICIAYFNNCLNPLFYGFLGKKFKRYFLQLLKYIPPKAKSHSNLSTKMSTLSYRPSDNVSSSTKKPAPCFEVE
The assay is described as follows: AT1 antagonist activity: inhibition of response to 3 nM angiotensin-II, intracellular Ca2+ by fluorimetry. The assay is classed as cell-based. Conditions: HEK-293 cells expressing hAT1.

Assay [2] has as its target T2, retinoid X receptor alpha (RXRa) (Homo sapiens, UniProt P19793).
T2 sequence (P19793 1-462): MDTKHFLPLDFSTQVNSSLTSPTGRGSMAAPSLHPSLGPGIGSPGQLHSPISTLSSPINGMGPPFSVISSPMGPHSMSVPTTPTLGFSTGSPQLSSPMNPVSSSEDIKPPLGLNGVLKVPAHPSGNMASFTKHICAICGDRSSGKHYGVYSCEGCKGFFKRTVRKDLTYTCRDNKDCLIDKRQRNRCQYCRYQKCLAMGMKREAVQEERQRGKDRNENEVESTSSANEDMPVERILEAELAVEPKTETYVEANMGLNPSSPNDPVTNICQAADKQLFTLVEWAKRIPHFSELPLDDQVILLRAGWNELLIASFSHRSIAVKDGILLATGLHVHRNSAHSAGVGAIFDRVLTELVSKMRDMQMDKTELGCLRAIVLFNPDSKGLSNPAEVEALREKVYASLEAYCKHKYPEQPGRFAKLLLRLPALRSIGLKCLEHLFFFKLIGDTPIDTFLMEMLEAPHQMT
The assay is described as follows: RXRα agonist activity assay.

Regarding `CCCc1nc2c(C)cc(-c3nc4ccccc4n3C)cc2n1Cc1ccc(-c2ccccc2-n2nn[nH]c2=O)cc1` [6t], in assay [1], the IC50 (commonly the concentration at which inhibition is half-maximal) worked out at 1.7 nM and the Kb (in general, the equilibrium dissociation constant of an antagonist, usually derived from a functional assay) is 0.14 nM.
With `C=C(c1ccc(-n2nn[nH]c2=O)cc1)c1cc2c(cc1C)C(C)(C)CCC2(C)C` [6u, 1-(4-(1-(3,5,5,8,8-pentamethyl-5,6,7,8-tetrahydronaphthalen-2-yl)vinyl)phenyl)-1,4-dihydro-5h-tetrazol-5-one], the EC50 – broadly, the concentration at which the effect is half-maximal – in assay [2] was 64 nM.

These data come from patent publication US9439888B2, “Tetrazolones as a carboxylic acid bioisosteres” (RIGEL PHARMACEUTICALS, INC., priority 2015, dated 2016).
